Where “and” joins values, the source holds several entries; their conditions need not be identical. Equal entries are not always repeated.
What was measured:
[1] = target: T1, hemoglobin (Hb) in human red blood cells (Homo sapiens, UniProt P69905); test: Oxy-hemoglobin dissociation curve (Hemox Analyzer), p50; assay type: biochemical
T1 construct: incubated for at least one hour at 37C with whole blood before Hemox analysis; endogenous in cells; host or cells: human red blood cells / whole blood
Experimental: One of the most extensively studied compounds for sickle cell anemia is GBT-440 (Voxelotor) (Figure 1B).[25] The extent of left-shifting can be assessed by determining the p50 or the partial pressure of oxygen at which half of the total Hb pool is bound to oxygen. We incubated human red blood cells with GBT-440 and observed a ~75% decrease in p50 (from ~28 to ~7 mmHg), consistent with previously reported values (Figure 1D). Experiments were performed using a HemOx analyzer that monitors oxygen saturation via Hb absorbance across a range of dissolved oxygen tensions. Upon further review of the sickle cell anemia literature, we found another compound, hereafter termed HypoxyStat (Figure 1B), which appeared to have a similar p50 as GBT-440.[26] We confirmed that HypoxyStat induced an ~82% decrease in p50 (Figure 1D).
Oxy-hemoglobin dissociation analysis was performed by the UCSF RBC laboratory using the TCS Hemox Analyzer (TCS Medical Products Company, Huntington Valley, PA). Initial pO2 is set to 160 mmHg. Hemoglobin is fully oxygenated under these conditions (HbO% =100). Replacement of air with nitrogen lowers pO2 and is measured by Clark electrode along with the change in the absorbance spectrum of hemoglobin. At a pO2 of 0 mmHg, hemoglobin is fully deoxygenated (HbO% =0). The relation between pO2 and HbO% is plotted, and the pO2 at which HbO% = 50% is defined as P50. The typical sigmoid de-oxygenation curve of normal blood with a P50 of 26–28 mmHg is used as a control for incubation conditions and to ensure proper function of the Hemox analyzer. For left-shifter comparison, the compounds were dissolved in HEPES buffered saline and then incubated for at least one hour at 37C with whole blood before Hemox analysis. A control of whole blood incubated with vehicle is also reported.

[2] = set-up: method as in PMID 28337324; conditions: Figure 2A, cited from earlier work
Hb = system: Hb; set-up: method as in PMID 28337324; conditions: Figure 2A; cited from earlier work
[3] = system: hypoxia transcriptional response (HIF); test: Hypoxia biomarkers in mice (plasma Epo, hematocrit, blood glucose, hypoxia-induced brain transcripts); assay type: in vivo, mouse; conditions: GBT-440
Experimental: Plasma Epo measurements were performed with R&D Systems Epo Elisa Kit (MEP00B) according to manufacturer directions. Briefly, whole blood was collected with anticoagulant before centrifugation within 30 minutes of collection and stored at −80C until day of analysis. On the day of Epo assay, samples were thawed and diluted 2-fold and incubated in the assay plate for two hours. Each well was washed five times before the addition of Epo Conjugate followed by a two-hour incubation. Each well was washed five times before adding Substrate Solution to develop for 30 minutes before addition of Stop Solution. The optical density of each well was determined at 450nm and correction wavelength of 540/570.
Hematocrit was determined with an iStat VetScan 1 with Zoetis Chem 8+ cartridges. Blood glucose measurements were performed using OneTouch UltraPlus glucometer. Whole blood chemistry measurements were performed on a VetScan HM5.
Half of the hindbrain was collected at necropsy and immediately flash frozen. For RNA extraction, a stainless-steel bead (Qiagen) and 1 mL TRIzol™ Reagent (Thermo Fisher Scientific) were added to the frozen samples, which were rapidly lysed using a tissue lyser (Qiagen) for five 1-minute cycles of 30 Hz frequency. Subsequent steps for RNA isolation were identical as previously described.[9] Reverse transcription was performed using the QuantiTect Reverse Transcription Kit (Qiagen) instructions. Briefly, gDNA was wiped out from samples containing 1 μg RNA. gDNA-free RNA samples were reverse transcribed following Qiagen’s instructions. […] For each set of triplicates, an average CT value was obtained, and the difference in average CT between the target gene and β-actin was calculated (ΔCT). Next, the difference in ΔCT value between each sample and the average of the normoxia samples was calculated (ΔΔCT). Relative expression of each gene was determined by calculating 2^−ΔΔCT.

Ndufs4 KO mouse = Ndufs4 KO mouse model of Leigh syndrome (survival, body weight, temperature, behavior, neuropathology); assay type: in vivo
Text: We continuously bred Ndufs4 Het x Het mice to generate KO and controls for our experiments. Ndufs4+/− and WT mice were used as controls as they are identical in all previously reported assays. Ndufs4 mice were obtained directly from Jackson labs (#027058). Pups were weaned and genotyped at ~21 d after birth. The age of mice at the time of experiments is described throughout the text. Male and female mice were used throughout studies. All cages were provided with food and water, with hydrated gel provided to newly weaned cages. Body weights were recorded at every dosing. Mice were euthanized according to guidelines at 20% drop in peak body weight. All animal studies were approved by the Institutional Animal Care & Use Committee (IACUC) Program at UCSF/Gladstone.
Mice were administered HypoxyStat at 600 mg/kg every other day or 400mg/kg daily via oral gavage. For the disease prevention experiments, KO mice that underwent daily dosing were dosed starting ~P30 for 1 week of 200mg/kg daily, followed by 400mg/kg daily to allow for gradual dose escalation. For the reversal study, KO mice were dosed once with 200mg/kg on postnatal day ~P55, followed by 400mg/kg daily. HypoxyStat was formulated as a suspension at 60 mg/mL, 40mg/ml or 80mg/ml depending on dose in 0.5%HPMC and stored at 4 °C. The formulation was determined to be stable for at least 8 weeks. Animal body weight was taken at time of dosing to determine appropriate dosing volume (10 mL/kg for every other day dosing, 5ml/kg for daily dosing). Vehicle treated mice were administered the same volume of 0.5% HPMC.
Mice were euthanized via CO2 inhalation. To perfuse the whole body, the right atrium was nicked and a needle was inserted into the left ventricle. Ice-cold PBS was slowly injected first, followed immediately by 4% PFA solution. The brain was removed, stored in 4% PFA for 24–48 h, and then washed with PBS for 5 min (3 times). The brains were placed in 70% ethanol followed by paraffin embedding. For paraffin sections, brains were sagittally sectioned at 5 μm thickness. Prior to staining, sections were deparaffinized. Antigen retrieval was performed by heating the slides to boiling temperature in 10 mM sodium citrate solution (pH 6) in a microwave, followed by heating for 10 minutes. The sections were rinsed 3 times for 5 minutes each with PBS. They were then incubated in a blocking solution containing 5% donkey serum (DS) in PBS-Tx (PBS with 0.2% Triton X-100) for 60 minutes at room temperature. After blocking, sections were incubated overnight at 4C with the primary antibody IBA1 (Genetex GTX100042, 1:250) and NeuN (Sigma, MAB377, 1:500). Afterward, the sections were rinsed 3 times for 5 minutes with PBS-Tx. Next, they were incubated with a fluorophore-conjugated secondary antibodies (Invitrogen, A21206 or A31570) for 1 hour at room temperature. Following secondary antibody incubation, the sections were rinsed 3 times for 5 minutes with PBS-Tx, and then once for 5 minutes with PBS. Histology was quantified using either the percentage of Iba1+ positive signal or blinded scoring (on the scale of 1–5).
The open field instrument (San Diego Instruments) was used to measure spontaneous locomotor activity. Mice were placed in open field chambers and allowed to acclimate for 5 min before movement tracking for 20min. Spontaneous locomotor activity was measured based on beam breaks and recorded by the instrument. Age of measurements is +/− 5 days for practical purposes without any age bias between groups.

[4] = GBT-440 daily maximal dosing from P30

T1 sequence (P69905 2-142 limits assumed): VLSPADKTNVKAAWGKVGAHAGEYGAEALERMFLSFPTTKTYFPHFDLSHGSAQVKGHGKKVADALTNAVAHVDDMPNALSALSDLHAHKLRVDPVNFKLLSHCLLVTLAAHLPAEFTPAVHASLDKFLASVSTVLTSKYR
T1 sequence (P68871 2-147 partner limits assumed): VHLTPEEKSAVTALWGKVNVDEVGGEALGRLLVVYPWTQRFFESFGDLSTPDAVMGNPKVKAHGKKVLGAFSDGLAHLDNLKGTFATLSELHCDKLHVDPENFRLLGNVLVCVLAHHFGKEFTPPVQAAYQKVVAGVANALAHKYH

CC(C)n1nccc1-c1ncccc1COc1cccc(O)c1C=O [GBT-440]
p50 ([1]; human red blood cells incubated 1 h with 10 mM compound, vehicle ~28 mmHg): 7.2 mmHg and ~ 7 mmHg
decrease in p50 ([1]; human red blood cells incubated with compound, vs vehicle): ~ 75%
Mouse PO blood:plasma ([2]; PO): 63.2
Mouse PO half-life ([2]; PO): 15.8 h
Cmax ([2]; mouse): 2210 nM
Hb occupancy (Hb): 6.5%
hypoxia biomarker response compared with HypoxyStat and inhaled hypoxia [3]: significantly blunted response
lifespan of Ndufs4 KO mice vs vehicle (Ndufs4 KO mouse; GBT-440 daily maximal dosing (400 mg/kg after 1 week at 200 mg/kg) from P30): did not result in a significant lifespan extension
spontaneous movement (open field), Ndufs4 KO mice (Ndufs4 KO mouse; [4]): failed to rescue
time on an accelerating rotating rod, Ndufs4 KO mice (Ndufs4 KO mouse; [4]): failed to rescue
body temperature of Ndufs4 KO mice (Ndufs4 KO mouse; GBT-440 daily maximal dosing from P30, ~P55): failed to rescue

Reference: paper PMC12186697, “HypoxyStat, a small-molecule form of hypoxia therapy that increases oxygen-hemoglobin affinity” (Cell, 2025)
